Data reported in patent US11491134B2, “Composition for inhibiting skin cell proliferation and/or anti-inflammation method for inhibiting skin cell proliferation and/or anti-inflammation and method for treating skin diseases and/or inflammatory diseases” (Industrial Technology Research Institute, priority 2019, dated 2022).

System: keratinocytes, HaCaT cells
Assay: Inhibition rate on keratinocyte (HaCaT cell) proliferation, MTT
Format: cell-based
Conditions: Homo sapiens
Procedure: Dimethyl sulfoxide (DMSO) was used as a solvent to prepare apigenin test samples with different concentrations and luteolin test samples with different concentrations. 9 batches of experiments were performed, which respectively were Batch 1 to Batch 9. There were 6 independent experiments in each batch of experiments. In each independent experiment, inhibition rate of an apigenin test sample with a specific concentration on keratinocyte proliferation and inhibition rate of a luteolin test sample with a specific concentration on keratinocyte proliferation were determined, and inhibition rate of a combination of an apigenin test sample with the said specific concentration and a luteolin test sample with the said specific concentration on keratinocyte proliferation was determined. Between the independent experiments, concentrations of apigenin test samples used were different, and concentrations of luteolin test samples used were also different, however, mole ratios or weight ratios of apigenin test samples to luteolin test samples were the same. Moreover, between the batches of experiments, mole ratios or weight ratios of apigenin test samples to luteolin test samples were different. 5×10^3 keratinocytes, HaCaT cells, were inoculated in a 96-well culture plate and then placed in a 37° C. and 5% CO2 incubator for culturing overnight, and cell numbers at this time point (T0) was used as a benchmark for cell proliferation. After overnight culture, a test sample was added to the cells in the culture plate (refer to Table 1, and the cells of the control group were only treated with dimethyl sulfoxide) for co-culturing for 48 hours (T48). After that, the supernatant in the culture plate was removed. After the supernatant was removed, 50 μL MTT solution (0.5 mg/mL; Life Technologies Cat. No. M-6494) was added to cells and then the culture plate was placed in a 37° C. and 5% CO2 incubator for culturing for 1.5 hours. After that, 150 μL DMSO (J. T. Baker, Cat. No. 9224-03) was added to the cells in the culture plate and shaken for 5 minutes. Thereafter, the absorbance of each well of the culture plate was determined at 570 nm by a continuous wavelength microplate reader, and inhibition rate on cell proliferation was calculated through the following formula: Inhibition rate on cell proliferation=T48 Control group570 nm−T48 Experimental group570 nm)/(T48 Control group570 nm−T0 Control group570 nm) In this experiment, the synergistic effects of apigenin and luteolin were evaluated by CalcuSyn software (BIOSOFT). CalcuSyn software is an analysis software which is commonly used to analyze the drug dosage effect of single drug and multiple drugs at present. CalcuSyn software can be used to analyze drug complex interactions and automatically quantify various phenomena such as synergism and inhibition. CalcuSyn software can process the data of individual drugs and combination drugs with constant-ratio or on-constant-ratio, and can evaluate the interaction of combination drugs by the combination index (CI) (Chou and Talalay, Adv. Enzyme Regul. 22:27-55 (1984) calculated by CalcuSyn software. Calculation formula for the combination index is shown in the following: Combination index=C1/IC1+C2/IC2 C1 and C2 are the respective concentrations of the first compound and the second compound at which the activity of achieving a specific physiological or medical purpose is 50% (or 75%, or 90%) when the first compound and the second compound are analyzed in combination; IC1 and IC2 are the respective concentrations at which the activity of achieving a specific physiological or medical purpose of the first compound and the second compound is 50% (or 75%, or 90%) when the first compound and the second compound are independently analyzed. […]

`O=c1cc(-c2ccc(O)c(O)c2)oc2cc(O)cc(O)c12` [Luteolin, luteolin] was tested, and the inhibition at 3.125 µM (Batch 1, luteolin 3.125 μM/0.89 μg/mL) was 0%, the inhibition at 6.25 µM (Batch 1, luteolin 6.25 μM/1.79 μg/mL) was 0.9% and the inhibition at 12.5 µM (Batch 1, luteolin 12.5 μM/3.58 μg/mL) was 17.2%. The inhibition at 25 µM (Batch 1, luteolin 25 μM/7.16 μg/mL) was 44.6%, the inhibition at 50 µM (Batch 1, luteolin 50 μM/14.31 μg/mL) was 67.7% and the inhibition at 100 µM (Batch 1, luteolin 100 μM/28.62 μg/mL) was 101%. It also gave an inhibition at 1.5625 µM (Batch 2, luteolin 1.5625 μM/0.45 μg/mL) of 11.3%, an inhibition at 3.125 µM (Batch 2, luteolin 3.125 μM/0.89 μg/mL) of 5.1% and an inhibition at 6.25 µM (Batch 2, luteolin 6.25 μM/1.79 μg/mL) of 19.6%. The inhibition at 12.5 µM (Batch 2, luteolin 12.5 μM/3.58 μg/mL) was 35%, the inhibition at 25 µM (Batch 2, luteolin 25 μM/7.16 μg/mL) was 53.8% and the inhibition at 50 µM (Batch 2, luteolin 50 μM/14.31 μg/mL) was 75.2%. The inhibition at 0.625 µM (Batch 3, luteolin 0.625 μM/0.18 μg/mL) was 1.9%, the inhibition at 1.25 µM (Batch 3, luteolin 1.25 μM/0.36 μg/mL) was 2.8% and the inhibition at 2.5 µM (Batch 3, luteolin 2.5 μM/0.72 μg/mL) was 4.3%. It also gave an inhibition at 5 µM (Batch 3, luteolin 5 μM/1.43 μg/mL) of 13.7%, an inhibition at 10 µM (Batch 3, luteolin 10 μM/2.86 μg/mL) of 31.9% and an inhibition at 20 µM (Batch 3, luteolin 20 μM/5.72 μg/mL) of 55.6%. For the same compound, the inhibition at 0.3125 µM (Batch 4, luteolin 0.3125 μM/0.09 μg/mL) was 0.4%, the inhibition at 0.625 µM (Batch 4, luteolin 0.625 μM/0.18 μg/mL) was 0% and the inhibition at 1.25 µM (Batch 4, luteolin 1.25 μM/0.36 μg/mL) was 0%. It also gave an inhibition at 2.5 µM (Batch 4, luteolin 2.5 μM/0.72 μg/mL) of 0%, an inhibition at 5 µM (Batch 4, luteolin 5 μM/1.43 μg/mL) of 0.8% and an inhibition at 10 µM (Batch 4, luteolin 10 μM/2.86 μg/mL) of 6.6%. The inhibition at 0.15625 µM (Batch 5, luteolin 0.15625 μM/0.04 μg/mL) was 11.4%, the inhibition at 0.3125 µM (Batch 5, luteolin 0.3125 μM/0.09 μg/mL) was 14% and the inhibition at 0.625 µM (Batch 5, luteolin 0.625 μM/0.18 μg/mL) was 4.3%. The inhibition at 1.25 µM (Batch 5, luteolin 1.25 μM/0.36 μg/mL) was 0%, the inhibition at 2.5 µM (Batch 5, luteolin 2.5 μM/0.72 μg/mL) was 0% and the inhibition at 5 µM (Batch 5, luteolin 5 μM/1.43 μg/mL) was 3.3%. The inhibition at 3.125 µM (Batch 6, luteolin 3.125 μM/0.89 μg/mL) was 0%, the inhibition at 6.25 µM (Batch 6, luteolin 6.25 μM/1.79 μg/mL) was 0.6% and the inhibition at 12.5 µM (Batch 6, luteolin 12.5 μM/3.58 μg/mL) was 18.5%. For the same compound, the inhibition at 25 µM (Batch 6, luteolin 25 μM/7.16 μg/mL) was 42.2%, the inhibition at 50 µM (Batch 6, luteolin 50 μM/14.31 μg/mL) was 57.8% and the inhibition at 100 µM (Batch 6, luteolin 100 μM/28.62 μg/mL) was 94.2%. The inhibition at 3.125 µM (Batch 7, luteolin 3.125 μM/0.89 μg/mL) was 8.6%, the inhibition at 6.25 µM (Batch 7, luteolin 6.25 μM/1.79 μg/mL) was 19% and the inhibition at 12.5 µM (Batch 7, luteolin 12.5 μM/3.58 μg/mL) was 37.5%. For the same compound, the inhibition at 25 µM (Batch 7, luteolin 25 μM/7.16 μg/mL) was 55.1%, the inhibition at 50 µM (Batch 7, luteolin 50 μM/14.31 μg/mL) was 70.1% and the inhibition at 100 µM (Batch 7, luteolin 100 μM/28.62 μg/mL) was 108%. The inhibition at 3.125 µM (Batch 8, luteolin 3.125 μM/0.89 μg/mL) was 5.2%, the inhibition at 6.25 µM (Batch 8, luteolin 6.25 μM/1.79 μg/mL) was 13.8% and the inhibition at 12.5 µM (Batch 8, luteolin 12.5 μM/3.58 μg/mL) was 33.5%. The inhibition at 25 µM (Batch 8, luteolin 25 μM/7.16 μg/mL) was 50.7%, the inhibition at 50 µM (Batch 8, luteolin 50 μM/14.31 μg/mL) was 63.6% and the inhibition at 100 µM (Batch 8, luteolin 100 μM/28.62 μg/mL) was 100%. It also gave an inhibition at 3.125 µM (Batch 9, luteolin 3.125 μM/0.89 μg/mL) of 4.2%, an inhibition at 6.25 µM (Batch 9, luteolin 6.25 μM/1.79 μg/mL) of 11% and an inhibition at 12.5 µM (Batch 9, luteolin 12.5 μM/3.58 μg/mL) of 30.1%. The inhibition at 25 µM (Batch 9, luteolin 25 μM/7.16 μg/mL) was 47.8%, the inhibition at 50 µM (Batch 9, luteolin 50 μM/14.31 μg/mL) was 62% and the inhibition at 100 µM (Batch 9, luteolin 100 μM/28.62 μg/mL) was 104%.
